According to ChEMBL document CHEMBL1137970, “N,N-Dialkylated 4-(4-arylsulfonylpiperazine-1-carbonyl)-benzamidines and 4-((4-arylsulfonyl)-2-oxo-piperazin-1-ylmethyl)-benzamidines as potent factor Xa inhibitors” (Bioorg Med Chem Lett, 2004):

What was measured:
Coagulation factor X = Coagulation factor X (Homo sapiens, UniProt P00742); assay: In vitro inhibitory activity against Coagulation factor X was determined
Prothrombin = Prothrombin (Homo sapiens, UniProt P00734)
[1] = Oral bioavailability in rat; format: ADME, organism-based; conditions: in vivo
Kallikrein-1 = Kallikrein-1 (Homo sapiens, UniProt P06870); assay: In vitro inhibitory activity against kallikrein was determined
Kallikrein-1, sequence (P06870 whole entry): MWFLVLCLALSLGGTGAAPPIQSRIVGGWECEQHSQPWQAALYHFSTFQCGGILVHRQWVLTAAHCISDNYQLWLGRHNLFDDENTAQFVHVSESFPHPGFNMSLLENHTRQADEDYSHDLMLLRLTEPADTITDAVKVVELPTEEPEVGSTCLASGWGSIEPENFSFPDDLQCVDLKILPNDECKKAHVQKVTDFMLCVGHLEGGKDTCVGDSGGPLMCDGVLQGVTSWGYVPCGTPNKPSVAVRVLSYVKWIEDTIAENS

[2] = Volume of distribution in rats; format: ADME, organism-based; conditions: rat, in vivo
[3] = Half life in rats; format: ADME, organism-based; conditions: rat, in vivo
[4] = Plasma clearance in rats; format: ADME, organism-based; conditions: rat

Coagulation factor X, sequence (P00742 41-179 limits assumed): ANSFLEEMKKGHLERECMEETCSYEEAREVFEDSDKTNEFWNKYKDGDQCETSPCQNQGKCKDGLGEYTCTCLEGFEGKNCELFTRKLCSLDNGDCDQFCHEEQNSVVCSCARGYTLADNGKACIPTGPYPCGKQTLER
Coagulation factor X, sequence (P00742 235-488 limits assumed): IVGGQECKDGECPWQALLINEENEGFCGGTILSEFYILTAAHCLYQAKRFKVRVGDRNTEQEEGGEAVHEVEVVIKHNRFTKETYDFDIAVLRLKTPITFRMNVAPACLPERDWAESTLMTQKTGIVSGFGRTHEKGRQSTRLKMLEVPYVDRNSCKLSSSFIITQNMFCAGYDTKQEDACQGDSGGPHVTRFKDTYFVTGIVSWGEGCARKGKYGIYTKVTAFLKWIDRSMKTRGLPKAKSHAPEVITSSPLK

| SMILES | IC50 (Coagulation factor X) [µM] | further results |
| --- | --- | --- |
| CNC(=O)CC1CN(S(=O)(=O)c2cc3cc(Cl)ccc3[nH]2)CCN1C(=O)c1ccc(C2=NCCN2C)cc1 (stereo not given) | 0.011 | – |
| N=C(c1ccc(C(=O)N2CCN(S(=O)(=O)c3cc4cc(Cl)ccc4[nH]3)CC2)cc1)N1CCC1 | 0.024 | – |
| O=C(c1ccc(C2=NCCCN2)cc1)N1CCN(S(=O)(=O)c2ccc3cc(Br)ccc3c2)CC1 | 1.3 | – |
| N=C(c1ccc(C(=O)N2CCN(S(=O)(=O)c3cc4ccc(Cl)cc4s3)CC2)cc1)N1CCCC1 | 0.07 | – |
| CN1CCN=C1c1ccc(C(=O)N2CCN(S(=O)(=O)c3cc4cc(Cl)ccc4[nH]3)CC2CC(=O)O)cc1 (stereo not given) | 0.041 | – |
| CN1CCN=C1c1ccc(C(=O)N2CCN(S(=O)(=O)c3cc4cc(Cl)ccc4[nH]3)CC2CC(=O)N2CCOCC2)cc1 (stereo not given) | 0.011 | – |
| CN1CCN=C1c1ccc(C(=O)N2CCN(S(=O)(=O)c3cc4ccc(Cl)cc4s3)CC2)cc1 | 0.009 | IC50 (Prothrombin): > 0.01 µM |
| CN1CCN=C1c1ccc(C(=O)N2CCN(C(=O)c3cc4cc(Cl)ccc4[nH]3)CC2)cc1 | > 11 | – |
| N=C(c1ccc(C(=O)N2CCN(S(=O)(=O)c3ccc4cc(Br)ccc4c3)CC2)cc1)N1CCCCC1 | 0.16 | – |
| CN1CCN=C1c1ccc(CN2CCN(S(=O)(=O)c3cc4cc(Cl)ccc4[nH]3)CC2=O)cc1 | 0.057 | – |
| CN1CCN=C1c1ccc(C(=O)N2CCN(S(=O)(=O)c3cc4ccc(Cl)cc4[nH]3)CC2)cc1 | 0.59 | – |
| CN(C)C(=N)c1ccc(CN2CCN(S(=O)(=O)c3cc4cc(Cl)ccc4[nH]3)CC2=O)cc1 | 0.037 | bioavailability [1]: 4.1% |
| COC(=O)C1CCN(C(=O)CC2CN(S(=O)(=O)c3cc4ccc(Cl)cc4s3)CCN2C(=O)c2ccc(C3=NCCN3C)cc2)CC1 (stereo not given) | 0.008 | – |
| CN1CCN=C1c1ccc(C(=O)N2CCN(S(=O)(=O)c3cc4ccc(Cl)cc4s3)CC2CC(=O)N2CCC2)cc1 (stereo not given) | 0.01 | – |
| COC(=O)CC1CN(S(=O)(=O)c2cc3cc(Cl)ccc3[nH]2)CCN1C(=O)c1ccc(C2=NCCN2C)cc1 (stereo not given) | 0.003 | – |
| CN(C)C(=N)c1ccc(C(=O)N2CCN(S(=O)(=O)c3cc4ccc(Cl)cc4s3)CC2)cc1 | 0.027 | – |
| CCN(C)C(=N)c1ccc(C(=O)N2CCN(S(=O)(=O)c3cc4cc(Cl)ccc4[nH]3)CC2)cc1 | 0.027 | – |
| N=C(c1ccc(CN2CCN(S(=O)(=O)c3cc4ccc(Cl)cc4s3)CC2=O)cc1)N1CCC1 | 0.011 | – |
| CN(C)C(=N)c1ccc(C(=O)N2CCN(S(=O)(=O)c3ccc4cc(Br)ccc4c3)CC2)cc1 | 0.23 | – |
| N=C(c1ccc(C(=O)N2CCN(S(=O)(=O)c3ccc4cc(Br)ccc4c3)CC2)cc1)N1CCOCC1 | 0.64 | – |
| CN1CCN=C1c1ccc(C(=O)N2CCN(S(=O)(=O)c3cc4cc(Cl)ccc4[nH]3)CC2)cc1 | – | IC50 (Kallikrein-1): 5.8 µM; Vd [2]: 28.9 L/kg; bioavailability [1]: 1.4%; half-life [3]: 7.8 h; clearance [4]: 42.9 mL/min/kg |

| SMILES | IC50 (Coagulation factor X) [µM] | further results |
| --- | --- | --- |
| N=C(N)c1ccc(C(=O)N2CCN(S(=O)(=O)c3ccc4cc(Br)ccc4c3)CC2)cc1 | 0.064 | – |
| C#CCN(C)C(=O)CC1CN(S(=O)(=O)c2cc3cc(Cl)ccc3[nH]2)CCN1C(=O)c1ccc(C2=NCCN2C)cc1 (stereo not given) | 0.014 | – |
| CN1CCN=C1c1ccc(C(=O)N2CCN(S(=O)(=O)c3cc4ccc(Cl)cc4s3)CC2CC(=O)N2CCN(c3ccncc3)CC2)cc1 (stereo not given) | 0.008 | – |
| COC(=O)CC1CN(S(=O)(=O)c2cc3ccc(Cl)cc3s2)CCN1C(=O)c1ccc(C2=NCCN2C)cc1 (stereo not given) | 0.013 | – |
| CCN1CCN=C1c1ccc(C(=O)N2CCN(S(=O)(=O)c3cc4cc(Cl)ccc4[nH]3)CC2)cc1 | 0.012 | – |
| CN1CCN=C1c1ccc(C(=O)N2CCN(S(=O)(=O)c3cc4cc(Cl)ccc4[nH]3)CC2CC(=O)N2CCC2)cc1 (stereo not given) | 0.005 | – |
| N=C(c1ccc(CN2CCN(S(=O)(=O)c3cc4ccc(Cl)cc4s3)CC2=O)cc1)N1CCCCC1 | 0.1 | – |
| CN1CCN=C1c1ccc(C(=O)N2CCN(S(=O)(=O)c3cc4ccc(Cl)cc4s3)CC2CC(=O)N2CCC(C(=O)O)CC2)cc1 (stereo not given) | 0.008 | – |
| CN(C)C(=N)c1ccc(CN2CCN(S(=O)(=O)c3cc4ccc(Cl)cc4s3)CC2=O)cc1 | 0.03 | bioavailability [1]: < 1% |
| O=C(c1ccc(C2=NCCN2)cc1)N1CCN(S(=O)(=O)c2ccc3cc(Br)ccc3c2)CC1 | 0.53 | – |
| N=C(c1ccc(C(=O)N2CCN(S(=O)(=O)c3ccc4cc(Br)ccc4c3)CC2)cc1)N1CCCC1 | 0.39 | – |
| N=C(c1ccc(C(=O)N2CCN(S(=O)(=O)c3cc4cc(Cl)ccc4[nH]3)CC2)cc1)N1CCCC1 | 0.084 | – |
| N=C(c1ccc(CN2CCN(S(=O)(=O)c3cc4cc(Cl)ccc4[nH]3)CC2=O)cc1)N1CCC1 | 0.008 | – |
| N=C(c1ccc(C(=O)N2CCN(S(=O)(=O)c3cc4ccc(Cl)cc4s3)CC2)cc1)N1CCCCC1 | 0.071 | – |
| CN1CCN=C1c1ccc(C(=O)N2CCN(S(=O)(=O)c3cc4ccc(Cl)cc4s3)CC2CC(=O)N2CCOCC2)cc1 (stereo not given) | 0.015 | IC50 (Prothrombin): 0.0032 µM |
| CN1CCN=C1c1ccc(CN2CCN(S(=O)(=O)c3cc4ccc(Cl)cc4s3)CC2=O)cc1 | 0.045 | – |
| CN1CCN=C1c1ccc(C(=O)N2CCN(S(=O)(=O)c3cc4cc(Cl)ccc4s3)CC2)cc1 | 0.27 | – |
| COC(=O)C1CN(S(=O)(=O)c2cc3cc(Cl)ccc3[nH]2)CCN1C(=O)c1ccc(C2=NCCN2C)cc1 (stereo not given) | 0.027 | – |
| CN1CCN=C1c1ccc(C(=O)N2CCN(S(=O)(=O)c3cc4cc(Cl)ccc4[nH]3)CC2C(=O)O)cc1 (stereo not given) | 0.012 | – |
| CN1CCN=C1c1ccc(C(=O)N2CCN(S(=O)(=O)c3cc4cc(Cl)ccc4[nH]3)CC2CC(=O)N2CCN(c3ccncc3)CC2)cc1 (stereo not given) | 0.008 | – |
| CN1CCN=C1c1ccc(C(=O)N2CCN(S(=O)(=O)c3cc4ccc(Cl)cc4s3)CC2CC(=O)N2CCCC2)cc1 (stereo not given) | 0.006 | – |

| SMILES | IC50 (Coagulation factor X) [µM] | further results |
| --- | --- | --- |
| CN1CCN=C1c1ccc(C(=O)N2CCN(S(=O)(=O)c3cc4ccc(Cl)cc4s3)CC2CC(=O)O)cc1 (stereo not given) | 0.029 | – |
| CN1CCN=C1c1ccc(C(=O)N2CCN(S(=O)(=O)c3cc4cc(Cl)ccc4[nH]3)CC2CC(N)=O)cc1 (stereo not given) | 0.018 | – |
| N=C(c1ccc(CN2CCN(S(=O)(=O)c3cc4cc(Cl)ccc4[nH]3)CC2=O)cc1)N1CCCC1 | 0.24 | – |
| CN1CCN=C1c1ccc(C(=O)N2CCN(S(=O)(=O)c3ccc4cc(Br)ccc4c3)CC2)cc1 | 0.031 | – |
| CCN1CCN=C1c1ccc(C(=O)N2CCN(S(=O)(=O)c3cc4ccc(Cl)cc4s3)CC2)cc1 | 0.036 | – |
| CN1CCN=C1c1ccc(C(=O)N2CCN(S(=O)(=O)c3cc4cc(Cl)ccc4[nH]3)CC2CC(=O)N2CCCC2)cc1 (stereo not given) | 0.007 | – |
| CN(C)C(=O)CC1CN(S(=O)(=O)c2cc3ccc(Cl)cc3s2)CCN1C(=O)c1ccc(C2=NCCN2C)cc1 (stereo not given) | 0.007 | – |
| CN(C)C(=N)c1ccc(C(=O)N2CCN(S(=O)(=O)c3cc4cc(Cl)ccc4[nH]3)CC2)cc1 | 0.02 | – |
| CCN(C)C(=N)c1ccc(C(=O)N2CCN(S(=O)(=O)c3cc4ccc(Cl)cc4s3)CC2)cc1 | 0.09 | – |
| CCN1CCN=C1c1ccc(C(=O)N2CCN(S(=O)(=O)c3ccc4cc(Br)ccc4c3)CC2)cc1 | 0.067 | – |
| N=C(c1ccc(CN2CCN(S(=O)(=O)c3cc4cc(Cl)ccc4[nH]3)CC2=O)cc1)N1CCCCC1 | 0.15 | – |
| N=C(c1ccc(CN2CCN(S(=O)(=O)c3cc4ccc(Cl)cc4s3)CC2=O)cc1)N1CCCC1 | 0.14 | – |
| N=C(c1ccc(C(=O)N2CCN(S(=O)(=O)c3cc4cc(Cl)ccc4[nH]3)CC2)cc1)N1CCCCC1 | 0.12 | – |
| CN1CCN=C1c1ccc(C(=O)N2CCN(S(=O)(=O)c3cc4ccc(Cl)cc4s3)CC2CC(=O)N2CCCCC2)cc1 (stereo not given) | 0.006 | – |
| CN1CCN=C1c1ccc(C(=O)N2CCN(S(=O)(=O)c3cc4cc(Cl)ccc4[nH]3)CC2CC(=O)N2CCCCC2)cc1 (stereo not given) | 0.007 | – |
| C#CCN(C)C(=O)CC1CN(S(=O)(=O)c2cc3ccc(Cl)cc3s2)CCN1C(=O)c1ccc(C2=NCCN2C)cc1 (stereo not given) | 0.019 | – |
| CNC(=N)c1ccc(C(=O)N2CCN(S(=O)(=O)c3ccc4cc(Br)ccc4c3)CC2)cc1 | 0.23 | – |
| CN1CCCN=C1c1ccc(C(=O)N2CCN(S(=O)(=O)c3ccc4cc(Br)ccc4c3)CC2)cc1 | 0.43 | – |
| N=C(c1ccc(C(=O)N2CCN(S(=O)(=O)c3cc4ccc(Cl)cc4s3)CC2)cc1)N1CCC1 | 0.025 | – |
| CN(C)C(=O)CC1CN(S(=O)(=O)c2cc3cc(Cl)ccc3[nH]2)CCN1C(=O)c1ccc(C2=NCCN2C)cc1 (stereo not given) | 0.01 | – |
